Measurements published in patent US20200207989A1, “FLUORESCENT PROBE FOR ALDH3A1 DETECTION” (The University of Tokyo, priority 2016, published 2020).

How the values were obtained:
Type in all cases: biochemical
ALDH1A1 [1] = molecular target: T1, ALDH1A1 (Homo sapiens, UniProt P00352); experiment: Kinetic characteristics (Michaelis-Menten Km, Kcat) with ALDH1A1; conditions: five minutes at 37° C., Tris buffer pH 7.5
T1 construct: purchased
T1 sequence (P00352 1-501): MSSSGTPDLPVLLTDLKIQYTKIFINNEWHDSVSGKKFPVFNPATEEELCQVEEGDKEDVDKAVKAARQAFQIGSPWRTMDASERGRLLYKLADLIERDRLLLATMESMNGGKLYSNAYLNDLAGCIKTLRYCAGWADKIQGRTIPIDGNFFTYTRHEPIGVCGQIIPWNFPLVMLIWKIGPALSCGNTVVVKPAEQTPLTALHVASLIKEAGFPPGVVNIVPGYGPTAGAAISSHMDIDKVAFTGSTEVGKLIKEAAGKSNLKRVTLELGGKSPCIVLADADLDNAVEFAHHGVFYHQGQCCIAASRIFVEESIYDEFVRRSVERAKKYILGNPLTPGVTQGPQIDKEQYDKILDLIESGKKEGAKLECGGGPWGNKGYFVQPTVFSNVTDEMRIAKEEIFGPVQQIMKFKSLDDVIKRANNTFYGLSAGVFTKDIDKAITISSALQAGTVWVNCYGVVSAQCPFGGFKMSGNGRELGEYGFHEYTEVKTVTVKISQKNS
Description: (§1) Human recombinant ALDH1A1/1A3/3A1 was purchased, and 100 mM of KCL, 2 mM of DTT, 1 mM of NAD(P), 10-100 nM of each ALDH, and 10-80 μM of each compound were mixed in Tris buffer (100 mM, pH 7.5), reacted for 30 minutes at 37° C., an equal amount of acetonitrile added, and the reaction stopped. The reaction solution was analyzed by UPLC/MS/MS (Waters). The UPCL chromatogram was carried out over five minutes at a flow rate of 800 μL/min by a linear gradient from 5% acetonitrile 0.01 M ammonium formate/water to 95% acetonitrile 0.01 M ammonium formate/water. An aldehyde-form and carboxylic acid-form probe were detected by the absorbance at a wavelength of 504 nm, and m/z of the MS spectrum at each peak was confirmed to agree with the expected m/z.
(§2) For the reaction, 100 mM of KCL, 2 mM of DTT, 1 mM of NAD(P), and five to six concentrations within the range of 10-100 nM of each ALDH and 0.1-80 μM of each probe were selected, mixed in Tris buffer (100 mM, pH 7.5), and reacted for five minutes at 37° C.; an equal amount of acetonitrile was added, and the reaction was stopped. Detection of the aldehyde-form/carboxylic acid-form probes was carried out using the same method as described above by UPLC/MS/MS. Km and Kcat were calculated by fitting the reaction rate at each probe concentration obtained to the Michaelis-Menten equation. A Kaleida Graph ver. 4.1 (Hulinks, Inc.) was used in fitting.

ALDH1A1 [2] = molecular target: T1, ALDH1A1; experiment: Reactivity of probes to recombinant ALDH1A1 (UPLC/MS/MS detection of aldehyde and carboxylic acid forms); conditions: 10-100 nM ALDH, 10-80 μM compound, Tris buffer pH 7.5, 30 minutes at 37° C., ◯/X not defined by a legend
Description: as §1

ALDH1A3 = molecular target: T2, ALDH1A3 (Homo sapiens, UniProt P47895); experiment: Kinetic characteristics (Michaelis-Menten Km, Kcat) with ALDH1A3; conditions: five minutes at 37° C., Tris buffer pH 7.5
T2 construct: purchased
T2 sequence (P47895 1-512): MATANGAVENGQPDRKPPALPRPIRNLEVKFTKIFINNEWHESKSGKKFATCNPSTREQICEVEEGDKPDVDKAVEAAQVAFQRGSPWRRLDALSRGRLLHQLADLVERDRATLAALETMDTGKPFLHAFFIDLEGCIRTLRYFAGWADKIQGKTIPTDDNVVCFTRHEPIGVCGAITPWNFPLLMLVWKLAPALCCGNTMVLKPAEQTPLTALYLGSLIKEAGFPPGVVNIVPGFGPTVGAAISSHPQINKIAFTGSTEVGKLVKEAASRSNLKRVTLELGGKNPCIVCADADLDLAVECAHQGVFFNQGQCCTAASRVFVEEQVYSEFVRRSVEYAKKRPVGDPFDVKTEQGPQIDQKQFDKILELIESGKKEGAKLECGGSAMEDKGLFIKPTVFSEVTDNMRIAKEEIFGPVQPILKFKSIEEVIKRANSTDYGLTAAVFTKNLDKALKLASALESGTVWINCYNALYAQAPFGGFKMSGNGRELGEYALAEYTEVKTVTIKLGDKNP
Description: as §1, §2

ALDH3A1 [3] = molecular target: T3, ALDH3A1 (Homo sapiens, UniProt P30838); experiment: Kinetic characteristics (Michaelis-Menten Km, Kcat) with ALDH3A1
T3 construct: purchased
T3 sequence (P30838 1-453): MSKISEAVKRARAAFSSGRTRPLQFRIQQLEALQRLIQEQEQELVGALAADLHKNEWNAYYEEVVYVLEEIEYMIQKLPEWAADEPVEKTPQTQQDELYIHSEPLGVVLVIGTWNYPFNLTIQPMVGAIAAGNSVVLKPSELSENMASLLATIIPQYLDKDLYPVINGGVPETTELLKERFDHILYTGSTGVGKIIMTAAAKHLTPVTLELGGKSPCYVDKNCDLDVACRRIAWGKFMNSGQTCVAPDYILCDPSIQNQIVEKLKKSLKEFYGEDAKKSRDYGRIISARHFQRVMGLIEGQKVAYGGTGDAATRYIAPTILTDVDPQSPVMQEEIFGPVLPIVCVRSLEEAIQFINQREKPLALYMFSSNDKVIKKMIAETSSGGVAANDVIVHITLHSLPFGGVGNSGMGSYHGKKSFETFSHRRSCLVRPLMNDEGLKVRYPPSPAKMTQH
Description: as §1, §2
The Kcat ratio (Kcat of ALDH3A1/Kcat of ALDH1A1) was calculated for probe 1, probe 3, and probe 5 as an indicator of ALDH1A1/ALDH3A1 specificity because the probe reaction rate at the actual probe use concentration is believed to be close to Vmax since Km is relatively small (Table 5).

ALDH3A1 [4] = molecular target: T3, ALDH3A1; experiment: Reactivity of probes to recombinant ALDH3A1 (UPLC/MS/MS); conditions: 10-100 nM ALDH, 10-80 μM compound, Tris buffer pH 7.5, 30 minutes at 37° C., ◯/X not defined by a legend
Description: as §1, with “formate/water.” for “formate/water. An aldehyde-form and carboxylic acid-form probe were detected by the absorbance at a wavelength of 504 nm, and m/z of the MS spectrum at each peak was confirmed to agree with the expected m/z.”

[5] = five minutes at 37° C., Tris buffer pH 7.5

N-(4-formylbenzyl)-3-(1,3-dimethyl-4,4-difluoro-4-bora-3a,4a-diaza-s-indacen-5-yl)-propionamide [Probe 1]
Kcat ALDH1A1 (ALDH1A1 [1]): 1.36 ± 0.045 s⁻¹ | Km (ALDH1A1 [1]): < 0.2 µM | Reactivity to ALDH1A1 (ALDH1A1 [2]): ◯ | Reactivity to ALDH1A1 (ALDH1A1 [2]; listed as Compound 1): reacted with all three of the isoforms tested | Kcat ALDH1A3 (ALDH1A3): 0.029 ± 0.0015 s⁻¹ | Km (ALDH1A3): 1.64 ± 0.49 µM | Kcat ALDH3A1 (ALDH3A1 [3]; [5]): 1.12 ± 0.08 s⁻¹ | Km (ALDH3A1 [3]; [5]): 58.9 ± 7.6 µM | Kcat ratio (Kcat of ALDH3A1/Kcat of ALDH1A1) (ALDH3A1 [3]; indicator of ALDH1A1/ALDH3A1 specificity): 0.8 | Reactivity to ALDH3A1 (ALDH3A1 [4]): ◯ | Reactivity to ALDH3A1 (ALDH3A1 [4]; listed as Compound 1): reacted with all three of the isoforms tested
